Experimental data reported in the supplement of paper PMC10307832.

Tests used:
Assay in all cases: relative viability (nuclei count vs DMSO), 5 days (fraction); higher = more cells survive
NVP-TAE684 + AZD7762 = compound: COc1cc(N2CCC(N3CCN(C)CC3)CC2)ccc1Nc1ncc(Cl)c(Nc2ccccc2S(=O)(=O)C(C)C)n1 [NVP-TAE684] + NC(=O)Nc1cc(-c2cccc(F)c2)sc1C(=O)N[C@H]1CCCNC1 [AZD7762] (partner 0.2 µM)
How it was run: (§1)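 Lung cancer cell lines were seeded in 1536-well plates and dosed by pin tool the next day, with either a single drug or a fixed anchor-drug dose combined with five library-drug doses (not always all listed) spaced in √10 steps. Five days later, one step fixed the cells and stained their nuclei (final 0.05% Triton X-100, 1% formaldehyde, 1 ug/ml Hoechst), and nuclei were counted on 4× images. Relative viability is the nuclei count in treated wells divided by the count in vehicle wells, and each value is the median of duplicate plates.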

NVP-TAE684 + Bortezomib = compound: COc1cc(N2CCC(N3CCN(C)CC3)CC2)ccc1Nc1ncc(Cl)c(Nc2ccccc2S(=O)(=O)C(C)C)n1 [NVP-TAE684] + CC(C)C[C@H](NC(=O)[C@H](Cc1ccccc1)NC(=O)c1cnccn1)B(O)O [Bortezomib] (partner 0.002 µM)
How it was run: as §1

Vandetanib + Foretinib = compound: COc1cc2/c(=N/c3ccc(Br)cc3F)nc[nH]c2cc1OCC1CCN(C)CC1 [Vandetanib] + COc1cc2c(Oc3ccc(NC(=O)C4(C(=O)Nc5ccc(F)cc5)CC4)cc3F)ccnc2cc1OCCCN1CCOCC1 [Foretinib] (partner 0.25 µM)
How it was run: as §1

NVP-TAE684 + Vorinostat = compound: COc1cc(N2CCC(N3CCN(C)CC3)CC2)ccc1Nc1ncc(Cl)c(Nc2ccccc2S(=O)(=O)C(C)C)n1 [NVP-TAE684] + O=C(CCCCCCC(=O)Nc1ccccc1)NO [Vorinostat] (partner 1 µM)
How it was run: as §1

[1] = compound: C1=CC=C2C(=C1)N=C(S2)C(C#N)C3=NC(=NC=C3)NCCC4=CN=CC=C4 + O=C(c1cc(Cc2n[nH]c(=O)c3ccccc23)ccc1F)N1CCN(C(=O)C2CC2)CC1 [Olaparib] (partner 8 µM)
How it was run: as §1

Cell Line | relative viability (NVP-TAE684 + AZD7762; first compound 0.2 µM) | relative viability (NVP-TAE684 + AZD7762; first compound 0.6325 µM) | relative viability (NVP-TAE684 + AZD7762; first compound 2 µM) | relative viability (NVP-TAE684 + Bortezomib; first compound 0.6325 µM) | relative viability (NVP-TAE684 + Bortezomib; first compound 2 µM) | relative viability (Vandetanib + Foretinib; first compound 0.02 µM) | relative viability (Vandetanib + Foretinib; first compound 0.06325 µM) | relative viability (Vandetanib + Foretinib; first compound 0.2 µM) | relative viability (Vandetanib + Foretinib; first compound 0.6325 µM) | relative viability (Vandetanib + Foretinib; first compound 2 µM) | relative viability (NVP-TAE684 + Vorinostat; first compound 0.2 µM) | relative viability (NVP-TAE684 + Vorinostat; first compound 0.6325 µM) | relative viability (NVP-TAE684 + Vorinostat; first compound 2 µM) | relative viability ([1]; first compound 0.005 µM) | relative viability ([1]; first compound 0.01581 µM) | relative viability ([1]; first compound 0.05 µM) | relative viability ([1]; first compound 0.1581 µM) | relative viability ([1]; first compound 0.5 µM) | relative viability (NVP-TAE684 + Bortezomib; first compound 0.2 µM)
HCC-827 | 0.193 | 0.177 | 0.18 | 0.988 | 1.05 | 1.07 | 1 | 0.706 | 0.296 | 0.169 | 0.754 | 0.762 | 0.793 | 0.568 | 0.616 | 0.728 | 0.657 | 0.566 | 
NCI-H1437 | 1.21 | 1.09 | 1.07 | 0.487 | 0.322 | 1.26 | 1.25 | 0.271 | 1.35 | 1.19 | 0.832 | 0.899 | 0.426 | 0.542 | 0.607 | 0.65 | 0.673 | 0.507 | 0.452
NCI-H2087 | 1.47 | 1.37 | 1.22 | 0.789 | 0.886 | 1.15 | 0.886 | 0.181 | 1.38 | 1.11 | 0.917 | 0.492 | 0.601 | 0.385 | 0.562 | 0.509 | 0.759 | 0.433 | 0.998
LCLC-103H | 0.877 | 0.771 | 0.664 | 1.11 |  | 0.864 | 0.786 | 0.679 | 0.899 | 0.714 | 0.725 | 0.759 | 0.653 | 0.628 | 0.829 | 0.764 | 0.849 | 0.649 | 1.09
PC-14 | 0.339 | 0.275 | 0.224 | 0.928 | 0.964 | 0.955 | 0.916 | 0.959 | 0.447 | 0.196 | 0.44 | 0.69 | 0.144 | 0.28 | 0.267 | 0.211 | 0.244 | 0.247 | 
H3255 | 0.939 | 0.823 | 0.881 | 0.618 | 0.746 | 0.904 | 0.824 | 0.858 | 0.689 | 0.345 | 0.855 | 0.757 | 0.667 | 0.55 | 0.594 | 0.603 | 0.575 | 0.534 | 0.766
NCI-H460 | 0.767 | 0.568 | 0.591 | 1.2 | 0.593 | 0.934 | 0.992 | 0.952 | 0.953 | 0.997 |  | 0.806 | 0.106 | 0.4 | 0.502 | 0.43 | 0.516 | 0.333 | 1.77
HOP-62 | 0.898 | 0.611 | 0.525 | 0.725 | 0.758 | 1.04 | 1.02 | 0.562 | 1.11 | 1.02 | 0.566 | 0.57 | 0.553 | 0.741 | 0.368 | 0.408 | 0.265 | 0.191 | 0.678
